Where two headings read alike, the source gives them in different places.
Test system: Angiotensin II (AII) vasopressor response
Assay: AII Challenge: antagonism of angiotensin II vasopressor response in conscious spontaneously hypertensive rats
Type: in vivo, rat (male okamoto-Aoki SHR)
Conditions: for inhibition in vivo at 3 mg/kg: Rattus norvegicus, read-out: Inhibition; for inhibition in vivo at 3 mg/kg / Average Change: SHR n=2; for Change: single SHR
From the text: Conscious Male okamoto-Aoki SHR, 16-20 weeks old, weighing approximately 330 g are purchased from Charles River Labs (Wilmington, Mass.). Conscious rats are restrained in a supine position with elastic tape. The area at the base of the tail is locally anesthetized by subcutaneous infiltration with 2% procaine. […] The cannula is secured, heparinized (1,000 I.U./ml), sealed and the wound is closed. The animals are placed in plastic restraining cages in an upright position. The cannula is attached to a Statham P23Db pressure transducer, and pulsatile blood pressure is recorded to 10-15 minutes with a Gould Brush recorder. […] Angiotensin II (human sequence, Sigma Chem. Co., St. Louis, Mo.) of 0.05 and 0.1 ug/kg i.v. is injected into all rats (predosing response). Then a test compound, vehicle or a known angiotensin II antagonist is administered i.v., i.p. or orally to each set of rats. […] The vasopressor response of angiotensin II is measured for the increase in systolic blood pressure in mmHg.

[1] = 3 mg/kg I.V., AII 0.05 mcg/kg IV, 30 min post dose
[2] = 3 mg/kg I.V., AII 0.05 mcg/kg IV, 60 min post dose
[3] = 3 mg/kg I.V., AII 0.1 mcg/kg IV, 300 min post dose
[4] = 3 mg/kg P.O., AII 0.05 mcg/kg IV, 30 min post dose
[5] = 3 mg/kg P.O., AII 0.1 mcg/kg IV, 30 min post dose

## CCCCc1nc2ccc([C@H]3[C@@H]4C(=O)OC[C@@H]4ON3Cc3ccccc3)cc2c(=O)n1Cc1ccc(-c2ccccc2-c2nnn[nH]2)cc1 (relative stereo) [Example 57]
iv, 0.5 h, 3 mg/kg I.V., AII 0.05 mcg/kg IV, 30 min post dose
  inhibition in vivo at 3 mg/kg: 100%
iv, 0.5 h, 3 mg/kg I.V., AII 0.1 mcg/kg IV, 30 min post dose
  inhibition in vivo at 3 mg/kg: 99%
iv, 1 h, 3 mg/kg I.V., AII 0.05 mcg/kg IV, 60 min post dose
  inhibition in vivo at 3 mg/kg: 100%
iv, 1 h, 3 mg/kg I.V., AII 0.1 mcg/kg IV, 60 min post dose
  inhibition in vivo at 3 mg/kg: 88%
iv, 2 h, 3 mg/kg I.V., AII 0.05 mcg/kg IV, 120 min post dose
  inhibition in vivo at 3 mg/kg: 90%
iv, 2 h, 3 mg/kg I.V., AII 0.1 mcg/kg IV, 120 min post dose
  inhibition in vivo at 3 mg/kg: 81%
iv, 3 h, 3 mg/kg I.V., AII 0.05 mcg/kg IV, 180 min post dose
  inhibition in vivo at 3 mg/kg: 61%
iv, 3 h, 3 mg/kg I.V., AII 0.1 mcg/kg IV, 180 min post dose
  inhibition in vivo at 3 mg/kg: 75%
iv, 4 h, 3 mg/kg I.V., AII 0.05 mcg/kg IV, 240 min post dose
  inhibition in vivo at 3 mg/kg: 77%
iv, 4 h, 3 mg/kg I.V., AII 0.1 mcg/kg IV, 240 min post dose
  inhibition in vivo at 3 mg/kg: 56%
iv, 5 h, 3 mg/kg I.V., AII 0.05 mcg/kg IV, 300 min post dose
  inhibition in vivo at 3 mg/kg: 71%
iv, 5 h, 3 mg/kg I.V., AII 0.1 mcg/kg IV, 300 min post dose
  inhibition in vivo at 3 mg/kg: 38%
iv, […], 3 mg/kg I.V., AII 0.05 mcg/kg IV, 90 min post dose
  inhibition in vivo at 3 mg/kg: 93%
iv, […], 3 mg/kg I.V., AII 0.1 mcg/kg IV, 90 min post dose
  inhibition in vivo at 3 mg/kg: 75%
po, 0.5 h, 3 mg/kg P.O., AII 0.05 mcg/kg IV, 30 min post dose
  inhibition in vivo at 3 mg/kg: 34%
po, 0.5 h, 3 mg/kg P.O., AII 0.1 mcg/kg IV, 30 min post dose
  inhibition in vivo at 3 mg/kg: 37%
po, 1 h, 3 mg/kg P.O., AII 0.05 mcg/kg IV, 60 min post dose
  inhibition in vivo at 3 mg/kg: 67%
po, 1 h, 3 mg/kg P.O., AII 0.1 mcg/kg IV, 60 min post dose
  inhibition in vivo at 3 mg/kg: 53%
po, 2 h, 3 mg/kg P.O., AII 0.05 mcg/kg IV, 120 min post dose
  inhibition in vivo at 3 mg/kg: 41%
po, 2 h, 3 mg/kg P.O., AII 0.1 mcg/kg IV, 120 min post dose
  inhibition in vivo at 3 mg/kg: 63%
po, 3 h, 3 mg/kg P.O., AII 0.05 mcg/kg IV, 180 min post dose
  inhibition in vivo at 3 mg/kg: 11%
po, 3 h, 3 mg/kg P.O., AII 0.1 mcg/kg IV, 180 min post dose
  inhibition in vivo at 3 mg/kg: 53%
po, […], 3 mg/kg P.O., AII 0.05 mcg/kg IV, 90 min post dose
  inhibition in vivo at 3 mg/kg: 47%
po, […], 3 mg/kg P.O., AII 0.1 mcg/kg IV, 90 min post dose
  inhibition in vivo at 3 mg/kg: 47%
[1]
  Average Change: 0 mmHg
  Change: 0 mmHg
[2]
  Average Change: 0 mmHg
  Change: 0 mmHg
3 mg/kg I.V., AII 0.05 mcg/kg IV, 90 min post dose
  Average Change: 2.5 mmHg
3 mg/kg I.V., AII 0.05 mcg/kg IV, 120 min post dose
  Average Change: 3.5 mmHg
3 mg/kg I.V., AII 0.05 mcg/kg IV, 180 min post dose
  Average Change: 13.5 mmHg
3 mg/kg I.V., AII 0.05 mcg/kg IV, 240 min post dose
  Average Change: 8 mmHg
3 mg/kg I.V., AII 0.05 mcg/kg IV, 300 min post dose
  Average Change: 10 mmHg
3 mg/kg I.V., AII 0.1 mcg/kg IV, 30 min post dose
  Average Change: 0.5 mmHg
3 mg/kg I.V., AII 0.1 mcg/kg IV, 60 min post dose
  Average Change: 5 mmHg
3 mg/kg I.V., AII 0.1 mcg/kg IV, 90 min post dose
  Average Change: 10 mmHg
3 mg/kg I.V., AII 0.1 mcg/kg IV, 120 min post dose
  Average Change: 7.5 mmHg
3 mg/kg I.V., AII 0.1 mcg/kg IV, 180 min post dose
  Average Change: 10 mmHg
3 mg/kg I.V., AII 0.1 mcg/kg IV, 240 min post dose
  Average Change: 17.5 mmHg
[3]
  Average Change: 25 mmHg
  Change: 25 mmHg
[4]
  Average Change: 25 mmHg
  Change: 25 mmHg
3 mg/kg P.O., AII 0.05 mcg/kg IV, 60 min post dose
  Average Change: 12.5 mmHg
3 mg/kg P.O., AII 0.05 mcg/kg IV, 90 min post dose
  Average Change: 20 mmHg
3 mg/kg P.O., AII 0.05 mcg/kg IV, 120 min post dose
  Average Change: 22.5 mmHg
3 mg/kg P.O., AII 0.05 mcg/kg IV, 180 min post dose
  Average Change: 34 mmHg
[5]
  Average Change: 30 mmHg
  Change: 30 mmHg
3 mg/kg P.O., AII 0.1 mcg/kg IV, 60 min post dose
  Average Change: 22.5 mmHg
3 mg/kg P.O., AII 0.1 mcg/kg IV, 90 min post dose
  Average Change: 25 mmHg
3 mg/kg P.O., AII 0.1 mcg/kg IV, 120 min post dose
  Average Change: 17.5 mmHg
3 mg/kg P.O., AII 0.1 mcg/kg IV, 180 min post dose
  Average Change: 22.5 mmHg
